Experiments:
human neutrophils [1] = assay: Rate of NETs formation in PMA-stimulated neutrophils after pre-treatment, counted by confocal microscopy; assay type: cell-based; settings: pre-treatment 10 μM for 30 minutes, then PMA 25 nM
[2] = bovine proteins; cited from earlier work
human neutrophils [3] = assay: Specificity experiment: inhibition of NETs formation by DNA concentration in the culture supernatant; assay type: cell-based; settings: n=3, p<0.01, FIG. 10
Method: About 1 hour after the isolation of the neutrophils described in “1. Method of isolating human neutrophils” in Example 2, the neutrophils were pre-treated. On an 8-well microslide (Cat. No. ib 80826 Ibidi (registered trademark)), the neutrophils were seeded in 400 μl of culture DMEM+2% human serum Alb (serum human albumin; Product No. A9080 Sigma+4 mM L-glutamine) at a rate of about 1.0×10^5 cells/well, and stimulated with PMA (final concentration: 25 nM, stock: 10 mM in DMSO, Sigma Prod No. P8139). At thirty minutes before the stimulation, and at every one hour or every two hours after the stimulation, 200 μg/ml of human lactoferrin (stock: 100 mg/ml, 200 μl; Cat. No. SIGL6793, SIGMA) was added to perform inhibition [FIG. 2].
The culture supernatant was recovered and centrifuged at 200×g for 10 minutes, and the supernatant was transferred to a new microscopic centrifuge tube. The DNA amount was measured by use of Picogreen dsDNA assay reagent (P11496 Invitrogen) in accordance with an accompanying protocol. Treatment with human lactoferrin at one hour and two hours after the stimulation was a similar effect to the prior pre-treatment, the DNA concentration in the culture supernatant decreased, resulting in suppression of the release of the DNAs by the NETs [FIG. 2]. […]

| Compound | formation of the NETs at plateau, compared with stimulation merely with PMA (human neutrophils [1]) | Isoelectric point [2] | inhibition of the formation of the NETs (human neutrophils [3]) |
| --- | --- | --- | --- |
| c1ccc2c(c1)[I+]c1ccccc1-2 [DPI, diphenyleneiodoniumchloride, reference compound] | ⅓ | – | – |
| lactoperoxidase [reference compound] | – | 8.0 | Neither lactoperoxidase nor angiogenin inhibited |
